The results in this text go back to ChEMBL document CHEMBL5385897, “Computer-Aided drug design of new 2-amino-thiophene derivatives as anti-leishmanial agents” (Eur J Med Chem, 2023).

The structures appear in SMILES notation.

The test system of series [1] is Leishmania amazonensis. Put plainly: Antileishmanial activity against Leishmania amazonensis axenic amastigote assessed as inhibition of parasite growth incubated for 72 hrs by MTT colorimetric assay. It counts as functional, organism-based.
Series [2] deals with Leishmania amazonensis. The experiment in a line: Antileishmanial activity against Leishmania amazonensis promastigote assessed as inhibition of parasite growth incubated for 72 hrs by MTT colorimetric assay. It counts as functional, organism-based. On the technique in general: Formazan colour is commonly taken as a measure of viable cells.
Series [3] in a line: Cytotoxicity against mouse J774.A1 cells incubated for 72 hrs by MTT colorimetric assay. It counts as toxicity, cell-based.
The nature of series [4]: Selectivity index, ratio of CC50 for cytotoxicity against mouse J774.A1 cells to IC50 for antileishmanial activity against Leishmania amazonensis axenic amastigote assessed as inhibition of parasite growth. It counts as toxicity, cell-based. Conditions: read-out: Ratio CC50/IC50.
Series [5] is described as follows: Selectivity index, ratio of CC50 for cytotoxicity against mouse J774.A1 cells to IC50 for antileishmanial activity against Leishmania amazonensis promastigote assessed as inhibition of parasite growth. It counts as toxicity, cell-based. Conditions: read-out: Ratio CC50/IC50.

For orientation: IC50 means the concentration that inhibits the measured activity by half. The term CC50 denotes the concentration that lowers cell viability or growth by half. With `N#Cc1c(N)sc2c1CCCCCC2`, the IC50 amounted to 9.8 µM in the series with Leishmania amazonensis [1] and 1.2 µM in the series on Leishmania amazonensis [2]. In series [3], it took 43.9 µM to reach half-maximal cytotoxicity (CC50 at 72 h). In addition, the values for the selectivity ratio in series [4] and in series [5] were 4.47 and 36.6, respectively.
For the compound `N#Cc1c(N)sc2c1CCCCC2`, the IC50 in the series with Leishmania amazonensis [1] was 2.79 µM. This compound also yielded a cytotoxic concentration (CC50) at 72 h in series [3] of 99.5 µM. Also, the selectivity ratio in series [4] is 35.7; in series [5], 31.1.
Turning to `N#Cc1c(N)sc2c1CCCC2`, the IC50 in the series on Leishmania amazonensis [1] was over 10 µM.
Turning to `COc1ccc2[nH]cc(/C=N/c3sc4c(c3C#N)CCCCCC4)c2c1`, the IC50 was found to be 2160 µM in the series on Leishmania amazonensis [1] and 900 µM in the series with Leishmania amazonensis [2].
For `N#Cc1c(/N=C/c2c[nH]c3ccc(Br)cc23)sc2c1CCC2`, the IC50 with Leishmania amazonensis [1] and in the series on Leishmania amazonensis [2] was over 10 µM in each case. Further, the CC50 at 72 h in series [3] is over 100 µM.
For `N#Cc1ccsc1/N=C/c1c[nH]c2ccc(Br)cc12`, the IC50 in the series with Leishmania amazonensis [1] is 0.71 µM; with Leishmania amazonensis [2] it was 9.7 µM. The compound further displayed a CC50 at 72 h in series [3] of 84.7 µM. For the same compound, the results for the selectivity ratio in series [4] and in series [5] were 119 and 8.73, respectively.
Turning to `N#Cc1c(/N=C/c2c[nH]c3ccc(Br)cc23)sc2c1CCNC2`, the IC50 with Leishmania amazonensis [1] and in the series with Leishmania amazonensis [2] was over 10 µM throughout. The same compound registered a CC50 at 72 h in series [3] of 11.2 µM.
As to `N#Cc1c(/N=C/c2c[nH]c3ccc(Br)cc23)sc2c1CCCCCCCCCC2`, the IC50 in the series on Leishmania amazonensis [1] and in the series with Leishmania amazonensis [2] was over 10 µM in each case. In series [3], this compound displayed a CC50 at 72 h of over 100 µM.
Regarding `N#Cc1c(/N=C/c2c[nH]c3ccc(Br)cc23)sc2c1CCCCCC2`, the IC50 stood at 3.8 µM in the series with Leishmania amazonensis [1] and 4.75 µM with Leishmania amazonensis [2]. Besides, the CC50 at 72 h in series [3] is over 100 µM. The values for the selectivity ratio in series [4] and in series [5] were over 26.3 and over 21.1, respectively.
The corresponding values for `CC1CCc2c(sc(/N=C/c3c[nH]c4ccc(Br)cc34)c2C#N)C1` (stereo unspecified) are 8.72 µM, 9.9 µM, over 100 µM, over 11.5 and over 10.1.
